row,Structure (SMILES),melting point
1,"COc1cc(COc2nn(-c3ccccc3)cc2/C=C/c2ccccn2)ccc1OCc1nc(-c2ccco2)oc1C [Example 113, 2-((E)-2-{3-[(4-{[2-(2-furyl)-5-methyl-1,3-oxazol-4-yl]methoxy}-3-methoxybenzyl)oxy]-1-phenyl-1H-pyrazol-4-yl}ethenyl)pyridine]",135 to 136 °C
2,"COc1cc(COc2nn(-c3ccccc3)cc2/C=C/c2cnco2)ccc1OCc1nc(-c2ccco2)oc1C [Example 114, 2-(2-furyl)-4-({2-methoxy-4-[({4-[(E)-2-(1,3-oxazol-5-yl)ethenyl]-1-phenyl-1H-pyrazol-3-yl}oxy)methyl]phenoxy}methyl)-5-methyl-1,3-oxazole]",137 to 138 °C
3,"COc1cc(COc2nn(-c3ccccc3)cc2/C=C/c2nnco2)ccc1OCc1nc(-c2ccco2)oc1C [Example 118, 2-((E)-2-{3-[(4-{[2-(2-furyl)-5-methyl-1,3-oxazol-4-yl]methoxy}-3-methoxybenzyl)oxy]-1-phenyl-1H-pyrazol-4-yl}ethenyl)-1,3,4-oxadiazole]",162 to 163 °C
4,"COc1cc(COc2nn(-c3ccccc3)cc2Cn2cncn2)ccc1OCc1nc(-c2ccco2)oc1C [Example 122, 1-({3-[(4-{[2-(2-furyl)-5-methyl-1,3-oxazol-4-yl]methoxy}-3-methoxybenzyl)oxy]-1-phenyl-1H-pyrazol-4-yl}methyl)-1H-1,2,4-triazole]",149 to 150 °C
5,"CCc1nnc(/C=C/c2cn(-c3ccccc3)nc2OCc2ccc(OCc3nc(-c4ccco4)oc3C)c(OC)c2)o1 [Example 126, 2-ethyl-5-((E)-2-{3-[(4-{[2-(2-furyl)-5-methyl-1,3-oxazol-4-yl]methoxy}-3-methoxybenzyl)oxy]-1-phenyl-1H-pyrazol-4-yl}ethenyl)-1,3,4-oxadiazole]",183 to 184 °C
6,"COc1cc(COc2nn(-c3ccccc3)cc2/C=C/[S+](C)[O-])ccc1OCc1nc(-c2ccco2)oc1C (stereo not drawn) [Example 128 (E form), 2-(2-furyl)-4-({2-methoxy-4-[({4-[(E)-2-(methylsulfinyl)ethenyl]-1-phenyl-1H-pyrazol-3-yl}oxy)methyl]phenoxy}methyl)-5-methyl-1,3-oxazole]",156 to 157 °C
7,"COc1cc(COc2nn(-c3ccccc3)cc2/C=C\[S+](C)[O-])ccc1OCc1nc(-c2ccco2)oc1C (stereo not drawn) [Example 128 (Z form), 2-(2-furyl)-4-({2-methoxy-4-[({4-[(Z)-2-(methylsulfinyl)ethenyl]-1-phenyl-1H-pyrazol-3-yl}oxy)methyl]phenoxy}methyl)-5-methyl-1,3-oxazole]",180 to 181 °C
8,"COc1cc(COc2nn(-c3ccccc3)cc2/C=C\S(C)(=O)=O)ccc1OCc1nc(-c2ccco2)oc1C [Example 131, 2-(2-furyl)-4-({2-methoxy-4-[({4-[(Z)-2-(methylsulfonyl)ethenyl]-1-phenyl-1H-pyrazol-3-yl}oxy)methyl]phenoxy}methyl)-5-methyl-1,3-oxazole]",158 to 159 °C
9,"CCCc1nnc(/C=C/c2cn(Cc3ccccc3)nc2OCc2ccc(OCc3nc(-c4ccco4)oc3C)c(OC)c2)o1 [Example 132, 2-((E)-2-{1-benzyl-3-[(4-{[2-(2-furyl)-5-methyl-1,3-oxazol-4-yl]methoxy}-3-methoxybenzyl)oxy]-1H-pyrazol-4-yl}ethenyl)-5-propyl-1,3,4-oxadiazole]",146 to 147 °C
10,"COc1cc(COc2cc(/C=C/C(=O)O)n(-c3ccccc3)n2)ccc1OCc1nc(-c2ccco2)oc1C [Example 136, (2E)-3-{3-[(4-{[2-(2-furyl)-5-methyl-1,3-oxazol-4-yl]methoxy}-3-methoxybenzyl)oxy]-1-phenyl-1H-pyrazol-5-yl}-2-propenoic acid]",191 to 192 °C
11,"COc1cc(COc2cc(/C=C/c3ccccn3)n(-c3ccccc3)n2)ccc1OCc1nc(-c2ccco2)oc1C [Example 140, 2-((E)-2-{3-[(4-{[2-(2-furyl)-5-methyl-1,3-oxazol-4-yl]methoxy}-3-methoxybenzyl)oxy]-1-phenyl-1H-pyrazol-5-yl}ethenyl)pyridine]",122 to 123 °C
12,"COc1cc(COc2cc(CCc3ccccn3)n(-c3ccccc3)n2)ccc1OCc1nc(-c2ccco2)oc1C [Example 141, 2-(2-{3-[(4-{[2-(2-furyl)-5-methyl-1,3-oxazol-4-yl]methoxy}-3-methoxybenzyl)oxy]-1-phenyl-1H-pyrazol-5-yl}ethyl)pyridine]",104 to 105 °C
13,"COc1cc(COc2nn(-c3ccccc3)cc2/C=C\c2csc(C)n2)ccc1OCc1nc(-c2ccco2)oc1C [Example 150 (Z form), 2-(2-furyl)-4-({2-methoxy-4-[({4-[(Z)-2-(2-methyl-1,3-thiazol-4-yl)ethenyl]-1-phenyl-1H-pyrazol-3-yl}oxy)methyl]phenoxy}methyl)-5-methyl-1,3-oxazole]",164 to 165 °C

# Other lines, results leading:
row,melting point,Structure (SMILES)
1,172 to 173 °C,"CCCc1nnc(/C=C/c2cn(-c3ccccc3)nc2OCc2ccc(OCc3nc(-c4ccco4)oc3C)c(OC)c2)o1 [Example 115, 2-((E)-2-{3-[(4-{[2-(2-furyl)-5-methyl-1,3-oxazol-4-yl]methoxy}-3-methoxybenzyl)oxy]-1-phenyl-1H-pyrazol-4-yl}ethenyl)-5-propyl-1,3,4-oxadiazole]"
2,127 to 128 °C,"COc1cc(COc2nn(-c3ccccc3)cc2CCc2cscn2)ccc1OCc1nc(-c2ccco2)oc1C [Example 119, 2-(2-furyl)-4-({2-methoxy-4-[({1-phenyl-4-[2-(1,3-thiazol-4-yl)ethyl]-1H-pyrazol-3-yl}oxy)methyl]phenoxy}methyl)-5-methyl-1,3-oxazole]"
3,102 to 103 °C,"CCCc1nnc(Cc2cn(-c3ccccc3)nc2OCc2ccc(OCc3nc(-c4ccco4)oc3C)c(OC)c2)o1 [Example 120, 2-({3-[(4-{[2-(2-furyl)-5-methyl-1,3-oxazol-4-yl]methoxy}-3-methoxybenzyl)oxy]-1-phenyl-1H-pyrazol-4-yl}methyl)-5-propyl-1,3,4-oxadiazole]"
4,95 to 96 °C,"COc1cc(COc2nn(-c3ccccc3)cc2CC2=NCCO2)ccc1OCc1nc(-c2ccco2)oc1C [Example 121, 4-{[4-({[4-(4,5-dihydro-1,3-oxazol-2-ylmethyl)-1-phenyl-1H-pyrazol-3-yl]oxy}methyl)-2-methoxyphenoxy]methyl}-2-(2-furyl)-5-methyl-1,3-oxazole]"
5,85 to 86 °C,"CCCc1nnc(CCc2cc(OCc3ccc(OCc4nc(-c5ccccc5)oc4C)c(OC)c3)nn2-c2ccccc2)o1 [Example 123, 2-{2-[3-({3-methoxy-4-[(5-methyl-2-phenyl-1,3-oxazol-4-yl)methoxy]benzyl}oxy)-1-phenyl-1H-pyrazol-5-yl]ethyl}-5-propyl-1,3,4-oxadiazole]"
6,192 to 193 °C,"CCCc1noc(/C=C/c2cn(-c3ccccc3)nc2OCc2ccc(OCc3nc(-c4ccco4)oc3C)c(OC)c2)n1 [Example 124, 5-((E)-2-{3-[(4-{[2-(2-furyl)-5-methyl-1,3-oxazol-4-yl]methoxy}-3-methoxybenzyl)oxy]-1-phenyl-1H-pyrazol-4-yl}ethenyl)-3-propyl-1,2,4-oxadiazole]"
7,186 to 187 °C,"COc1cc(COc2nn(-c3ccccc3)cc2/C=C/c2nnc(C)o2)ccc1OCc1nc(-c2ccco2)oc1C [Example 125, 2-((E)-2-{3-[(4-{[2-(2-furyl)-5-methyl-1,3-oxazol-4-yl]methoxy}-3-methoxybenzyl)oxy]-1-phenyl-1H-pyrazol-4-yl}ethenyl)-5-methyl-1,3,4-oxadiazole]"
8,165 to 166 °C,"CCCc1nnc(/C=C/c2cn(-c3ccccc3)nc2OCc2ccc(OCc3nc(-c4ccco4)oc3C)c(OC)c2)o1 [Example 127, 2-((E)-2-{3-[(4-{[2-(2-furyl)-5-methyl-1,3-oxazol-4-yl]methoxy}-3-methoxybenzyl)oxy]-1-phenyl-1H-pyrazol-4-yl}ethenyl)-5-propyl-1,3,4-oxadiazole]"
9,152 to 153 °C,"COc1cc(COc2nn(-c3ccccc3)cc2/C=C/S(C)(=O)=O)ccc1OCc1nc(-c2ccco2)oc1C [Example 130, 2-(2-furyl)-4-({2-methoxy-4-[({4-[(E)-2-(methylsulfonyl)ethenyl]-1-phenyl-1H-pyrazol-3-yl}oxy)methyl]phenoxy}methyl)-5-methyl-1,3-oxazole]"
10,119 to 120 °C,"CCCc1nnc(/C=C/c2nc(-c3ccccc3)oc2COc2ccc(OCc3nc(-c4ccccc4)oc3C)cc2)o1 [Example 133, 2-{(E)-2-[5-({4-[(5-methyl-2-phenyl-1,3-oxazol-4-yl)methoxy]phenoxy}methyl)-2-phenyl-1,3-oxazol-4-yl]ethenyl}-5-propyl-1,3,4-oxadiazole]"
11,127 to 128 °C,"CCOC(=O)/C=C/c1cc(OCc2ccc(OCc3nc(-c4ccco4)oc3C)c(OC)c2)nn1-c1ccccc1 [Example 135, ethyl (2E)-3-{3-[(4-{[2-(2-furyl)-5-methyl-1,3-oxazol-4-yl]methoxy}-3-methoxybenzyl)oxy]-1-phenyl-1H-pyrazol-5-yl}-2-propenoate]"
12,107 to 108 °C,"CCCc1nnc(/C=C/c2cc(OCc3ccc(OCc4nc(-c5ccco5)oc4C)c(OC)c3)nn2-c2ccccc2)o1 [Example 138, 2-((E)-2-{3-[(4-{[2-(2-furyl)-5-methyl-1,3-oxazol-4-yl]methoxy}-3-methoxybenzyl)oxy]-1-phenyl-1H-pyrazol-5-yl}ethenyl)-5-propyl-1,3,4-oxadiazole]"
13,154 to 155 °C,"COc1cc(COc2cc(/C=C/c3cscn3)n(-c3ccccc3)n2)ccc1OCc1nc(-c2ccco2)oc1C [Example 139, 2-(2-furyl)-4-({2-methoxy-4-[({1-phenyl-5-[(E)-2-(1,3-thiazol-4-yl)ethenyl]-1H-pyrazol-3-yl}oxy)methyl]phenoxy}methyl)-5-methyl-1,3-oxazole]"
14,95 to 96 °C,"COc1cc(COc2cc(Cn3cncn3)n(-c3ccccc3)n2)ccc1OCc1nc(-c2ccco2)oc1C [Example 143, 1-({3-[(4-{[2-(2-furyl)-5-methyl-1,3-oxazol-4-yl]methoxy}-3-methoxybenzyl)oxy]-1-phenyl-1H-pyrazol-5-yl}methyl)-1H-1,2,4-triazole]"

# — patent US7368578B2, “Five-membered heterocyclic compounds” (Takeda Pharmaceutical Company Limited, priority 2002, dated 2008)
